# How the values were obtained:
# breast cancer = settings: mouse model of breast cancer, Gilkes et al.; cited from earlier work
# IRPs = experiment: Electrophoretic mobility shift assay for IRE-binding by IRPs from treated cells; format: cell-based, human; settings: treated MDA-MB-231 cells, 24 h, radiolabeled RNA ligand
# Procedure: The resultant pellets (˜50 μL) were washed with PBS and then lysed using a protocol described previously.^41 Briefly, cell pellets were resuspended in 200 μL of cell lysis buffer, which was 20 mM Hepes-HCl buffer, pH 7.4, containing sodium pyrophosphate (10 mM), sodium fluoride (50 mM), β-glycerophosphate (50 mM), EDTA (5 mM), GTP (1 mM), sodium orthovanadate (1 mM), benzamidine hydrochloride (2 mM), Nonidet NP-40 (0.5% v/v), p-nitrophenyl p′-guanidinobenzoate-HCl (25 μg/mL), DTT (1 mM), leupeptin (40 μg/mL), pepstatin (4 μg/mL), SBTI (100 μg/mL), MG132 (10 μM), PMSF (200 μM), and BHT (5 μg/mL) by vortexing and lysed on ice by vortexing every few min. After 15 min, the lysates were centrifuged at 14,000 rpm and the supernatants aliquoted and stored at −80° C. until analysis by an electrophoretic mobility shift assay (EMSA).
# EMSAs were performed and quantified essentially as described previously.^42 Briefly [^32P]-L-ferritin IRE (1 nM RNA, specific radioactivity ˜7,000 dpm/fmol) was incubated with lysate protein (2.5 μg as determined by the Bradford assay) in binding buffer for 10 min on ice. Heparin was added (to 0.5 mg/mL), and the reaction mixture was incubated for an additional 5 min on ice before separating bound and free RNA on a nondenaturing polyacrylamide gel at ambient temperature.
# MDA-MB-231 cells = settings: 500 μM; cited from earlier work
# [1] = titration of 20 μM FeSO4; bipy; read-out: Fe20-EC50; cited from earlier work
# [2] = cited from earlier work
# human PHD2 = biological target: T1, human PHD2 (Homo sapiens, UniProt Q9GZT9); experiment: Assay of human PHD2 activity in the presence of inhibitors; format: biochemical; settings: 10 μM compound
# T1 construct: made in house
# Procedure: The catalytic activity of human PHD2 was assayed as described previously.^36 Briefly, activity assays were carried out at 30° C. in 100 μL Tris-HCl buffer, pH 7.8, containing human NHis6-PHD2181-426 (5 μM), inhibitor (0-50 μM), substrate (HIF-1α peptide556-574, 50 μM), FeSO4 (50 μM), BSA (1 mg/mL), catalase (0.3 mg/mL), sodium ascorbate (2 mM), DTT (1 mM), and α-ketoglutarate (35 μM). Reactions mixtures were pre-incubated with or without inhibitor for 2 min at 30° C., after which the reaction was initiated by the addition of α-ketoglutarate. After 10 minutes, reactions were quenched by boiling for 60 s and centrifuged at 10,000 g. The supernatant (50 μL) was injected into a Nucleodur® C18 Gravity reversed-phase column (4.6×250 mm, 5 μm particle size) from Macherey-Nagel (Bethlehem, Pa.). The column was eluted at 1 mL/min with a gradient (34 min) of 5-56% aqueous acetonitrile containing 0.1% v/v TFA. The absorbance of the eluent was monitored at 218 nm. All assays were performed in triplicate. Data is reported as activity relative to control reactions lacking inhibitor, where activity is determined from the percent conversion of substrate to product.
# human CP4H1 = biological target: T2, human CP4H1 (Homo sapiens, UniProt P13674); experiment: Assay of human CP4H1 activity in the presence of inhibitors; format: biochemical
# T2 construct: made in house; host or cells: Origami B(DE3) Escherichia coli
# Procedure: The catalytic activity of human CP4H1 was assayed as described previously.^35 Briefly, activity assays were carried out at 30° C. in 100 μL Tris-HCl buffer, pH 7.8, containing human CP4H1 (100 nM), inhibitor (0-500 μM), substrate (dansylGlyProProGlyOEt, 500 μM), FeSO4 (50 μM), BSA (1 mg/mL), catalase (0.1 mg/mL), sodium ascorbate (2 mM), DTT (100 μM), and α-ketoglutarate (100 μM). Reactions were pre-incubated with or without inhibitor for 2 min at 30° C., after which the reaction was initiated by the addition of α-ketoglutarate. After 15 min, reactions were quenched by boiling for 45 s and centrifuged at 10,000 g. The supernatant (20-50 μL) was injected into a Nucleodur® C18 Gravity reversed-phase column (4.6×250 mm, 5 μm particle size) from Macherey-Nagel (Bethlehem, Pa.). The column was eluted at 1 mL/min with a gradient (20 min) of aqueous acetonitrile (20-45% v/v) containing 0.1% v/v TFA. The absorbance of the eluent was monitored at 289 nm. All assays were performed in triplicate. Data are reported as activity relative to control reactions lacking inhibitor, where catalytic activity is determined from the percent conversion of substrate to product. Dose-response curves were generated for each inhibitor by plotting the relative activity versus the log of the inhibitor concentration. IC50-values for each inhibitor were interpolated from the data by non-linear regression using the sigmoidal dose-response function available in Prism.
# T2 sequence (P13674 18-534): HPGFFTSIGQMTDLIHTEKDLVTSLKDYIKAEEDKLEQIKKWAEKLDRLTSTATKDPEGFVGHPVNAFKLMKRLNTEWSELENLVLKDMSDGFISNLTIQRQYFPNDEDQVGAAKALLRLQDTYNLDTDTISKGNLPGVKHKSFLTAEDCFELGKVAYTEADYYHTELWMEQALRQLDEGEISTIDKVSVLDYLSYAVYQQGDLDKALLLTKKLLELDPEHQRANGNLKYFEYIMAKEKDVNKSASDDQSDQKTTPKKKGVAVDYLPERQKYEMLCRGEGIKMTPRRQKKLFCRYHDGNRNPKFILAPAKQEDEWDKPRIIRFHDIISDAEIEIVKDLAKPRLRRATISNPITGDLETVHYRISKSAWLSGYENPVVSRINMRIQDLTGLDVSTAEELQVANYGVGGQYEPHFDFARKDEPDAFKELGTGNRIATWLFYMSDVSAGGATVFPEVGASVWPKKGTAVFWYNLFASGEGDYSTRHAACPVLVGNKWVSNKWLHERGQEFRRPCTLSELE
# T2 sequence (P07237 18-508 partner): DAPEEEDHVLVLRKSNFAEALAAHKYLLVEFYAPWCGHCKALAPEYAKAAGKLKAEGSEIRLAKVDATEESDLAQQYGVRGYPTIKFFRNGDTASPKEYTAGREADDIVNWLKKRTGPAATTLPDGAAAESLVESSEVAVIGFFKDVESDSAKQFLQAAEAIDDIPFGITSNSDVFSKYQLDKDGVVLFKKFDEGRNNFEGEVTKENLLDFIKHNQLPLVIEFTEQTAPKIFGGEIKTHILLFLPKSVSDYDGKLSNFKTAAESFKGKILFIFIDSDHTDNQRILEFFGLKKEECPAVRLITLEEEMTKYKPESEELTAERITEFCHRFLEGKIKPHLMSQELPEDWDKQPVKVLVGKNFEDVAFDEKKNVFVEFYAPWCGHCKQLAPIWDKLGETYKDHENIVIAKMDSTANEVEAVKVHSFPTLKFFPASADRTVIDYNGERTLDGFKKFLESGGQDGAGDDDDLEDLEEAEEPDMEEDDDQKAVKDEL
# T1 sequence (Q9GZT9 181-426 limits assumed): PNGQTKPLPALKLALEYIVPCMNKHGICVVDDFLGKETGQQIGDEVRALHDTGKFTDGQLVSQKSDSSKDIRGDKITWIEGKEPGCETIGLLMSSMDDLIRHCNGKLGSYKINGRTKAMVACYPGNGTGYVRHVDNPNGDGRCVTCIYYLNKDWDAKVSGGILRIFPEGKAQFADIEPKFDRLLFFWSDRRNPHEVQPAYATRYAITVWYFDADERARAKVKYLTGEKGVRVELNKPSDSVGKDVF
Structure (SMILES),Tumor fibrosis and metastasis (breast cancer),RNA binding by IRPs (IRPs),Collagen secretion (MDA-MB-231 cells),EC50 [1],Heteroaryl pKa (ref.) ([2]; conjugate acid of pyridine (bipy) or the nonpyridyl ring),"pKa ([2]; conjugate acid of the entire compound, bipy)",Inhibition of human PHD2 in screen (human PHD2),"Inhibition of catalytic activity of human CP4H1 in initial screen (human CP4H1; 10 μM compound, 50 μM FeSO4)","IC50 (human CP4H1; dose-response, mean of three independent experiments)",Potency relative to pyoxDC (human CP4H1; from dose-response IC50 values)
"CCOC(=O)c1ccc(O)c(O)c1 [EDHB, Ethyl dihydroxybenzoate]",decreases tumor fibrosis and metastasis,significant increases,diminish collagen secretion significantly,,,,,,,
"c1ccc(-c2ccccn2)nc1 [bipy, 2,2′-bipyridine, reference compound]",,significant increases,,43 ± 2 µM,5.2 (48),4.3,,,,
"O=C(O)c1ccc(-c2ncc(C(=O)O)[nH]2)nc1 [pyimDC, 2-(5-Carboxy-1-H-imidazol-2-yl)pyridine-5-carboxylic Acid]",,,,,,,only weakly,inhibitors,2.6 ± 0.1 µM,approximately 10 fold

# Reference: patent US9809586B2, “Inhibitors of collagen prolyl 4-hydroxylase” (WISCONSIN ALUMNI RESEARCH FOUNDATION, priority 2015, dated 2017)
